Measured values: DBAASP
Converted amounts (≈) assume the structure as drawn.

Legend:
Assay in all cases: ≥ marks a high value that may be exact or a test limit, other limits are often not marked, values filed in µg/mL are converted to µM
[1] = system: Escherichia coli K12 MG1655
[2] = system: Streptococcus mutans
[3] = system: Pseudomonas aeruginosa ATCC 27853
[4] = system: Candida albicans ATCC 2002
[5] = system: Escherichia coli ATCC 25922
[6] = system: Escherichia coli DH5alpha
[7] = system: Pseudomonas aeruginosa CMCCB 10104
[8] = system: Staphylococcus aureus ATCC 25923
[9] = system: Leuconostoc lactis
[10] = system: Enterococcus faecalis ATCC 29212
[11] = system: Shigella dysenteriae
[12] = system: Pseudomonas aeruginosa
[13] = system: Staphylococcus aureus ATCC 2592
[14] = system: Bacillus cereus

SMILES	MIC [2] [µM]	MIC [4] [µM]	MIC [5] [µM]	MIC [7] [µM]	MIC [8] [µM]	other results
CC[C@H](C)[C@H](NC(=O)[C@H](C)N)C(=O)N[C@@H](C)C(=O)N[C@@H](CCCN=C(N)N)C(=O)N[C@H](C(=O)N[C@@H](CCCN=C(N)N)C(=O)N[C@@H](CCCN=C(N)N)C(=O)N[C@@H](CCCN=C(N)N)C(=O)N[C@@H](CC(C)C)C(=O)N[C@@H](CC(C)C)C(=O)N[C@@H](CC(C)C)C(=O)N[C@@H](Cc1ccc(O)cc1)C(=O)N[C@@H](CC(C)C)C(=O)N[C@@H](CC(C)C)C(=O)N[C@@H](C)C(=O)O)[C@@H](C)O [AIARTRRRLLLYLLA]	–	–	–	–	–	MIC [1]: ≥ 71.1 µM
C[C@H](N)C(=O)N[C@@H](CCC(N)=O)C(=O)N[C@@H](C)C(=O)N[C@@H](C)C(=O)N[C@@H](Cc1cnc[nH]1)C(=O)N[C@@H](CCC(N)=O)C(=O)N[C@@H](C)C(=O)N[C@@H](C)C(=O)N[C@@H](Cc1cnc[nH]1)C(=O)N[C@@H](C)C(=O)N[C@@H](C)C(=O)N[C@@H](Cc1cnc[nH]1)C(=O)N[C@@H](CCC(N)=O)C(=O)N[C@@H](Cc1ccccc1)C(N)=O [AQAAHQAAHAAHQF]	≥ 85.7	–	–	–	–	–
CC[C@H](C)[C@H](NC(=O)[C@H](Cc1cnc[nH]1)NC(=O)[C@H](C)NC(=O)[C@H](CCSC)NC(=O)[C@H](CC(N)=O)NC(=O)[C@H](CCCCN)NC(=O)[C@H](CCCCN)NC(=O)[C@@H](NC(=O)[C@@H](NC(=O)[C@H](CCCCN)NC(=O)[C@H](C)NC(=O)[C@H](Cc1ccccc1)NC(=O)[C@H](CC(C)C)NC(=O)[C@H](CCCCN)NC(=O)[C@@H]1CCCN1C(=O)[C@H](CC(C)C)NC(=O)[C@@H](N)Cc1ccccc1)[C@@H](C)CC)[C@@H](C)O)C(=O)N[C@@H](CCCN=C(N)N)C(=O)O [FLPKLFAKITKKNMAHIR]	–	0.742 (≈ 1.6 µg/mL)	1.48 (≈ 3.2 µg/mL)	1.48 (≈ 3.2 µg/mL)	0.742 (≈ 1.6 µg/mL)	MIC [3]: 50 µM (≈ 108 µg/mL); MIC [6]: ≥ 50 µM
CC[C@H](C)[C@H](NC(=O)CNC(=O)[C@@H](NC(=O)[C@@H](NC(=O)[C@H](Cc1cnc[nH]1)NC(=O)[C@H](CCCCN)NC(=O)[C@H](C)NC(=O)[C@H](CC(C)C)NC(=O)[C@H](CC(=O)O)NC(=O)[C@H](CC(C)C)NC(=O)[C@H](CC(C)C)NC(=O)CN)C(C)C)[C@@H](C)CC)C(=O)N[C@@H](C)C(=O)N[C@@H](CO)C(=O)N[C@@H](CCCCN)C(=O)N[C@@H](CC(C)C)C(N)=O [GLLDLAKHVIGIASKL]	–	–	–	–	–	MIC [9]: ≥ 100 µM; MIC [10]: 100 µM (≈ 165 µg/mL)
CC[C@H](C)[C@H](NC(=O)[C@H](CC(C)C)NC(=O)[C@H](CCC(N)=O)NC(=O)[C@@H](NC(=O)[C@H](C)NC(=O)CNC(=O)[C@H](CCCCN)NC(=O)[C@@H](NC(=O)[C@H](CC(C)C)NC(=O)[C@@H](NC(=O)[C@H](Cc1ccccc1)NC(=O)[C@@H](NC(=O)CN)C(C)C)[C@@H](C)O)[C@@H](C)CC)[C@@H](C)O)C(=O)NCC(=O)N[C@@H](CCCCN)C(=O)N[C@H](C(=O)N[C@@H](CC(C)C)C(=O)NCC(=O)N[C@@H](CCCCN)C(=O)N[C@@H](CCC(=O)O)C(=O)N[C@@H](CC(C)C)C(=O)NCC(=O)N[C@@H](CCCCN)C(=O)N[C@H](C(=O)NCC(=O)N[C@@H](CC(C)C)C(=O)N[C@@H](CCC(=O)O)C(=O)N[C@@H](CC(C)C)C(=O)N[C@@H](CCSC)C(=O)N[C@@H](C)C(=O)N[C@H]1CSSC[C@@H](C(=O)O)NC(=O)[C@H](CCC(N)=O)NC(=O)[C@H](CC(N)=O)NC(=O)[C@H]([C@@H](C)O)NC(=O)[C@H]([C@@H](C)CC)NC(=O)[C@H](CCCCN)NC1=O)[C@@H](C)O)[C@@H](C)O [GVFTLIKGATQLIGKTLGKELGKTGLELMACKITNQC]	–	2.78 (≈ 10.8 µg/mL)	2.78 (≈ 10.8 µg/mL)	5.57 (≈ 21.6 µg/mL)	5.57 (≈ 21.6 µg/mL)	–
CSCC[C@@H]1NC(=O)[C@H](C(C)C)NC(=O)[C@H](C)NC(=O)[C@H](CCCN=C(N)N)NC(=O)[C@H](Cc2ccccc2)NC(=O)CNC(=O)CNC(=O)[C@H](CCCCN)NC(=O)[C@@H](NC(=O)[C@H](CCCN=C(N)N)NC(=O)[C@@H]2CCCN2C(=O)[C@H](CCSC)NC(=O)[C@H](CO)NC(=O)[C@H](Cc2ccc(O)cc2)NC(=O)[C@H](C)NC(=O)[C@@H](N)CCCCN)CSSC[C@@H](C(=O)N[C@@H](Cc2c[nH]c3ccccc23)C(=O)N[C@@H](CC(C)C)C(N)=O)NC1=O [KAYSMPRCKGGFRAVMCWL]	–	22.7 (≈ 49.9 µg/mL)	5.67 (≈ 12.5 µg/mL)	–	–	MIC [11]: 5.67 µM (≈ 12.5 µg/mL); MIC [12]: 22.7 µM (≈ 49.9 µg/mL); MIC [13]: 11.3 µM (≈ 25 µg/mL); MIC [14]: 22.7 µM (≈ 49.9 µg/mL)
CSCC[C@H](NC(=O)[C@H](CCC(=O)O)NC(=O)[C@H](C)NC(=O)[C@H](C)NC(=O)[C@@H](NC(=O)CNC(=O)[C@H](C)NC(=O)[C@@H](NC(=O)[C@H](Cc1ccccc1)NC(=O)[C@H](C)NC(=O)[C@@H](N)CC(C)C)C(C)C)C(C)C)C(=O)N[C@@H](CCSC)C(=O)N[C@@H](CCC(N)=O)C(=O)N[C@@H](Cc1cnc[nH]1)C(=O)N[C@H](C(=O)N[C@@H](Cc1ccc(O)cc1)C(=O)N[C@H]1CSSC[C@@H](C(=O)O)NC(=O)[C@H](CCCCN)NC(=O)[C@H](CCCCN)NC(=O)[C@H](CO)NC(=O)[C@H](C)NC(=O)[C@H](C)NC1=O)C(C)C [LAFVAGVAAEMMQHVYCAASKKC]	–	5.11 (≈ 12.4 µg/mL)	2.55 (≈ 6.2 µg/mL)	5.11 (≈ 12.4 µg/mL)	5.11 (≈ 12.4 µg/mL)	–
CC(C)C[C@H](NC(=O)[C@H](C)NC(=O)[C@@H](N)CC(N)=O)C(=O)N[C@@H](CO)C(=O)N[C@@H](CO)C(=O)N1CCC[C@H]1C(=O)N[C@@H](CCCN=C(N)N)C(=O)N[C@@H](CC(N)=O)C(=O)N[C@@H](CCCCN)C(=O)N[C@H]1CSSC[C@@H](C(=O)N[C@@H](Cc2ccccc2)C(=O)NCC(=O)O)NC(=O)[C@H](CO)NC(=O)[C@H](CO)NC(=O)[C@H](C)NC(=O)[C@H](CCCN=C(N)N)NC(=O)[C@H](CC(=O)O)NC1=O [NALSSPRNKCDRASSCFG]	–	3.27 (≈ 6.24 µg/mL)	26.1 (≈ 49.9 µg/mL)	–	–	MIC [11]: 1.62 µM (≈ 3.1 µg/mL); MIC [12]: 3.27 µM (≈ 6.25 µg/mL); MIC [13]: 3.27 µM (≈ 6.24 µg/mL); MIC [14]: 6.53 µM (≈ 12.5 µg/mL)
CC(C)C[C@H](NC(=O)[C@H](Cc1cnc[nH]1)NC(=O)[C@H](CCCCN)NC(=O)[C@H](Cc1ccccc1)NC(=O)[C@H](CCCN=C(N)N)NC(=O)[C@H](CCCCN)NC(=O)[C@H](CC(C)C)NC(=O)[C@H](CC(C)C)NC(=O)[C@@H](N)CCCN=C(N)N)C(=O)N[C@@H](Cc1ccccc1)C(=O)N[C@@H](CCCCN)C(=O)O [RLLKRFKHLFK]	≥ 42.1	–	–	–	–	–
NC(=O)[C@H](Cc1ccccc1)NC(=O)[C@H](Cc1c[nH]c2ccccc12)NC(=O)[C@H](Cc1c[nH]c2ccccc12)NC(=O)[C@H](Cc1c[nH]c2ccccc12)NC(=O)[C@H](CCCN=C(N)N)NC(=O)[C@H](CCCN=C(N)N)NC(=O)[C@H](CCCN=C(N)N)NC(=O)[C@@H]1CCCN1C(=O)[C@H](CO)NC(=O)CNC(=O)[C@H](CO)NC(=O)[C@@H]1CCCN1C(=O)[C@H](Cc1ccccc1)NC(=O)[C@H](Cc1c[nH]c2ccccc12)NC(=O)[C@H](Cc1c[nH]c2ccccc12)NC(=O)[C@H](Cc1c[nH]c2ccccc12)NC(=O)[C@H](CCCN=C(N)N)NC(=O)[C@H](CCCN=C(N)N)NC(=O)[C@@H](N)CCCN=C(N)N [RRRWWWFPSGSPRRRWWWF]	11.5 (≈ 32 µg/mL)	–	–	–	–	–
NC(=O)[C@H](Cc1ccccc1)NC(=O)[C@H](Cc1c[nH]c2ccccc12)NC(=O)[C@H](Cc1c[nH]c2ccccc12)NC(=O)[C@H](Cc1c[nH]c2ccccc12)NC(=O)[C@H](CCCN=C(N)N)NC(=O)[C@H](CCCN=C(N)N)NC(=O)[C@H](CCCN=C(N)N)NC(=O)[C@H](Cc1ccccc1)NC(=O)[C@H](Cc1c[nH]c2ccccc12)NC(=O)[C@H](Cc1c[nH]c2ccccc12)NC(=O)[C@H](Cc1c[nH]c2ccccc12)NC(=O)[C@H](CCCN=C(N)N)NC(=O)[C@H](CCCN=C(N)N)NC(=O)[C@@H](N)CCCN=C(N)N [RRRWWWFRRRWWWF]	6.76 (≈ 16 µg/mL)	–	–	–	–	–
NC(N)=NCCC[C@H](NC(=O)[C@H](Cc1c[nH]c2ccccc12)NC(=O)[C@H](CCCN=C(N)N)NC(=O)[C@H](Cc1c[nH]c2ccccc12)NC(=O)[C@H](CCCN=C(N)N)NC(=O)[C@H](Cc1c[nH]c2ccccc12)NC(=O)[C@@H](N)CCCN=C(N)N)C(=O)O [RWRWRWR]	26.6 (≈ 32 µg/mL)	–	–	–	–	–
CC[C@H](C)[C@H](NC(=O)[C@H](C)NC(=O)[C@H](CC(C)C)NC(=O)[C@H](CC(N)=O)NC(=O)[C@H](CCCCN)NC(=O)[C@H](CC(C)C)NC(=O)[C@@H](NC(=O)[C@H](CC(=O)O)NC(=O)[C@H](CC(C)C)NC(=O)[C@H](Cc1ccccc1)NC(=O)[C@@H](N)CO)[C@@H](C)O)C(=O)N[C@@H](CO)C(=O)N[C@@H](C)C(=O)N[C@@H](C)C(=O)N[C@@H](CCCCN)C(=O)NCC(=O)N[C@@H](C)C(=O)NCC(=O)N[C@@H](CCC(N)=O)C(=O)N[C@@H](CO)C(=O)N[C@H](C(=O)N[C@@H](CC(C)C)C(=O)N[C@@H](CO)C(=O)N[C@H](C(=O)N[C@@H](CC(C)C)C(=O)N[C@@H](CO)C(=O)N[C@H]1CSSC[C@@H](C(=O)O)NC(=O)[C@H]([C@@H](C)O)NC(=O)[C@H](CCC(=O)O)NC(=O)[C@H](CO)NC(=O)[C@H](CC(C)C)NC(=O)[C@H](CCCCN)NC1=O)[C@@H](C)O)C(C)C [SFLDTLKNLAISAAKGAGQSVLSTLSCKLSETC]	–	1.97 (≈ 6.6 µg/mL)	3.93 (≈ 13.2 µg/mL)	1.97 (≈ 6.6 µg/mL)	1.97 (≈ 6.6 µg/mL)	–
